PubChem BioAssay (NCI)
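Protocol summary: plate cells (96-well), add compound at 5 concentrations, incubate 48 h, interpolate endpoints linearly. At the GI50, growth is halved. TGI: concentration producing complete growth inhibition.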

How the values were obtained:
Experiment in all cases: growth of human tumour cells (NCI), 48 h
[1] = system: CAKI-1 renal
[2] = system: HOP-62 NSCLC
[3] = system: LOX IMVI melanoma
[4] = system: NCI-H460 lung
[5] = system: NCI/ADR-RES ovarian
[6] = system: OVCAR-4 ovarian
[7] = system: RPMI-8226 leukemia
[8] = system: SF-268 CNS
[9] = system: SR leukemia
[10] = system: T-47D breast

Compound: CC(C)(C)OC(=O)N1CCC2(CC1)C(=O)NCN2c1ccccc1
- TGI [1]: > 100 µM
- TGI [2]: > 100 µM
- TGI [3]: > 100 µM
- TGI [4]: > 100 µM
- TGI [5]: > 100 µM
- TGI [6]: > 100 µM
- TGI [7]: > 100 µM
- TGI [8]: > 100 µM
- TGI [9]: > 100 µM
- TGI [10]: > 100 µM

Compound: CC1(O)CC23CC(O)C4(O)C(CC(O)C4(C)C)C(C)(O)C2CCC1C3O (configuration not stated)
- TGI [1]: > 100 µM
- TGI [3]: > 100 µM
- TGI [4]: > 100 µM
- TGI [5]: > 100 µM
- TGI [6]: > 100 µM
- TGI [8]: > 100 µM
- TGI [9]: > 100 µM
- TGI [10]: > 100 µM

Compound: CCOC(=O)CCC(NC(=O)c1ccc(NCc2ccc3nc(OC)c(OC)nc3c2)c2ccccc12)C(=O)OCC (configuration not stated)
- TGI [1]: > 100 µM
- TGI [2]: > 100 µM
- TGI [3]: > 100 µM
- TGI [4]: > 100 µM
- TGI [5]: > 100 µM
- TGI [6]: > 100 µM
- TGI [8]: > 100 µM
- TGI [10]: > 100 µM

Compound: C/C(=C\C(=O)O)C(=O)N(C)c1ccccc1I
- TGI [1]: > 100 µM
- TGI [2]: > 100 µM
- TGI [3]: > 100 µM
- TGI [4]: > 100 µM
- TGI [5]: > 100 µM
- TGI [6]: > 100 µM
- TGI [7]: > 100 µM
- TGI [8]: > 100 µM
- TGI [9]: > 100 µM
- TGI [10]: > 100 µM

Compound: CCOC(=O)CSc1nc(-c2ccc(Cl)cc2)c(C#N)c(=O)[nH]1
- TGI [1]: > 100 µM
- TGI [2]: > 100 µM
- TGI [4]: > 100 µM
- TGI [5]: > 100 µM
- TGI [6]: > 100 µM
- TGI [7]: > 100 µM
- TGI [8]: > 100 µM
- TGI [10]: > 100 µM

Compound: CC1CC(C)(C)CC(OCCN2CCCCC2)(c2ccccc2)C1 (configuration not stated)
- TGI [1]: 25.5 µM
- TGI [2]: 26.5 µM
- TGI [3]: 21.3 µM
- TGI [4]: 17.5 µM
- TGI [5]: 33.9 µM
- TGI [6]: 24 µM
- TGI [7]: 20.3 µM
- TGI [8]: 23.9 µM
- TGI [9]: 20.4 µM
- TGI [10]: 29.5 µM

Compound: O=[N+]([O-])/C=C/c1cn(CCCCCCCCn2cc(/C=C/[N+](=O)[O-])c3ccccc32)c2ccccc12
- TGI [1]: > 10 µM
- TGI [2]: > 10 µM
- TGI [3]: > 10 µM
- TGI [4]: > 10 µM
- TGI [5]: > 10 µM
- TGI [6]: > 10 µM
- TGI [7]: 1.11 µM
- TGI [8]: > 10 µM
- TGI [9]: > 10 µM
- TGI [10]: > 10 µM

Compound: CN=C1C=C(/N=C2/C=C(N/C(=C\C#N)C(C)(C)O)OC2(C)C)OC1(C)C
- TGI [1]: > 67.1 µM
- TGI [2]: > 100 µM
- TGI [3]: > 100 µM
- TGI [4]: > 100 µM
- TGI [5]: > 62.6 µM
- TGI [6]: > 100 µM
- TGI [7]: > 69.6 µM
- TGI [8]: > 100 µM
- TGI [9]: > 68.5 µM
- TGI [10]: > 100 µM

Compound: O=[N+]([O-])C(/C=C(\Cl)[N+](=O)[O-])=C(Nc1ccccc1)Nc1ccccc1
- TGI [1]: 26.8 µM
- TGI [2]: 4.8 µM
- TGI [3]: 33.2 µM
- TGI [4]: 30 µM
- TGI [5]: 58.5 µM
- TGI [6]: 20.6 µM
- TGI [7]: 6.35 µM
- TGI [8]: 37.7 µM
- TGI [9]: 6.02 µM
- TGI [10]: 37.3 µM

Compound: CCOC(=O)c1c(-c2ccc(Cl)cc2)c(C#N)c(=S)n(C2OC(COC(C)=O)C(OC(C)=O)C(OC(C)=O)C2OC(C)=O)c1C (configuration not stated)
- TGI [1]: > 100 µM
- TGI [2]: > 100 µM
- TGI [3]: > 100 µM
- TGI [4]: > 100 µM
- TGI [5]: > 100 µM
- TGI [6]: > 100 µM
- GI50 [7]: 36.1 µM
- TGI [7]: > 100 µM
- TGI [8]: > 100 µM
- TGI [9]: > 100 µM
- TGI [10]: > 100 µM

Compound: CC(C)(C)[C@H]1NC(=O)CN1C(=O)OCc1ccccc1
- TGI [2]: > 100 µM
- TGI [3]: > 100 µM
- TGI [4]: > 100 µM
- TGI [5]: > 100 µM
- TGI [6]: > 100 µM
- TGI [7]: > 100 µM
- TGI [8]: > 100 µM
- TGI [9]: > 100 µM
- TGI [10]: > 100 µM

Compound: CC1=NN(c2cc(Cl)c(S(=O)(=O)O)cc2Cl)C2(C1)C(Cl)C(=O)N2c1nc2ccccc2s1 (configuration not stated)
- TGI [1]: > 100 µM
- TGI [3]: > 100 µM
- TGI [4]: > 100 µM
- TGI [5]: > 100 µM
- TGI [6]: > 100 µM
- TGI [7]: > 100 µM
- TGI [8]: > 100 µM
- TGI [9]: > 100 µM
- TGI [10]: > 100 µM

Compound: CC1OC23CCCCC2C(C#N)(C#N)C1(C#N)C(=N)O3 (configuration not stated)
- TGI [1]: 19.8 µM
- TGI [3]: 40.2 µM
- TGI [4]: 43.5 µM
- TGI [5]: > 100 µM
- TGI [8]: 60.3 µM
- TGI [10]: 53.6 µM

Compound: O=c1[nH]c2ccccc2c(=O)n1/N=C\c1ccccc1O
- TGI [1]: > 100 µM
- TGI [2]: > 100 µM
- TGI [3]: > 100 µM
- TGI [4]: > 100 µM
- TGI [7]: > 100 µM
- TGI [8]: > 100 µM
- TGI [9]: > 100 µM
- TGI [10]: > 100 µM

Compound: CC(C)NC(=O)OCCN=C1c2ccccc2C(Br)C(Br)c2ccccc21 (configuration not stated)
- TGI [1]: 19.7 µM
- TGI [2]: 30 µM
- TGI [3]: 10.1 µM
- TGI [4]: 32.4 µM
- TGI [5]: 41.7 µM
- TGI [6]: 33.6 µM
- TGI [7]: 23.1 µM
- TGI [8]: 38.7 µM
- TGI [10]: 18.4 µM

Compound: O=C(c1ccccc1)C1C(c2ccccc2[N+](=O)[O-])N1C1CCCCC1 (configuration not stated)
- TGI [1]: 9.5 µM
- TGI [2]: 34.1 µM
- TGI [3]: 5.18 µM
- TGI [4]: 24.8 µM
- TGI [5]: > 85.2 µM
- TGI [6]: 22.7 µM
- TGI [7]: 4.68 µM
- TGI [8]: 38.3 µM
- TGI [10]: 7.57 µM

Compound: COc1cc2c(cc1OCCN1CCN(CCOc3cc4c(cc3OC)C(=O)N3CCC[C@H]3C=N4)CC1)N=C[C@@H]1CCCN1C2=O
- TGI [1]: 49.3 µM
- TGI [2]: > 100 µM
- GI50 [3]: > 100 µM
- TGI [3]: > 100 µM
- TGI [4]: > 100 µM
- TGI [5]: > 100 µM
- TGI [6]: > 100 µM
- TGI [7]: 15.4 µM
- TGI [8]: > 100 µM
- TGI [10]: > 100 µM

Compound: CN(C)c1ccc(/C=C2\N=C(c3ccccc3)N(c3nc4ccc(Sc5ccccc5)cc4[nH]3)C2=O)cc1
- TGI [1]: > 100 µM
- TGI [2]: > 100 µM
- TGI [3]: > 100 µM
- TGI [4]: > 100 µM
- TGI [5]: 85.3 µM
- TGI [6]: > 100 µM
- TGI [7]: 71.4 µM
- TGI [8]: > 100 µM
- TGI [10]: > 100 µM

Compound: CCOC(=O)NCC(=O)NCC(=O)NCC(N)=O
- TGI [1]: > 100 µM
- TGI [2]: > 100 µM
- TGI [5]: > 100 µM
- TGI [6]: > 100 µM
- TGI [7]: > 100 µM
- TGI [8]: > 100 µM
- TGI [9]: > 100 µM
- TGI [10]: > 100 µM

Compound: N#CC(c1cc(Cl)ncn1)c1nc2cc(C(F)(F)F)ccc2s1 (configuration not stated)
- TGI [1]: > 100 µM
- TGI [2]: 30.9 µM
- TGI [3]: 11.8 µM
- TGI [4]: > 100 µM
- TGI [5]: 9.5 µM
- TGI [6]: 19.5 µM
- TGI [7]: > 100 µM
- TGI [8]: 19.4 µM
- TGI [10]: > 100 µM

Compound: CC1=NN(C(=O)CC(=O)Nc2cccc(C)c2)C(=O)C1N=Nc1ccc(C(=O)O)cc1 (configuration not stated)
- TGI [1]: > 100 µM
- TGI [2]: > 100 µM
- TGI [3]: > 100 µM
- TGI [5]: > 100 µM
- TGI [6]: > 100 µM
- TGI [7]: > 100 µM
- TGI [8]: > 100 µM
- TGI [9]: > 100 µM
- TGI [10]: > 100 µM

Compound: CC(C)C(Nc1c2ccccc2[n+](C)c2ccccc12)C(=O)O (configuration not stated)
- TGI [1]: > 100 µM
- TGI [2]: > 100 µM
- TGI [4]: > 100 µM
- TGI [6]: > 100 µM
- TGI [7]: > 100 µM
- TGI [8]: > 100 µM
- TGI [9]: > 100 µM
